Target: Muscarinic acetylcholine receptor M4 (Homo sapiens) (UniProt P08173)
Assay: potentiation of EC20 ACh response at hM4 – cell-based, human M4, calcium flux, Millipore GPCR Profiler, dose response (AID 449765)
Conditions: M4-expressing cells, calcium flux fluorescence

Chain of Muscarinic acetylcholine receptor M4 (Homo sapiens) (P08173 whole entry, looked up): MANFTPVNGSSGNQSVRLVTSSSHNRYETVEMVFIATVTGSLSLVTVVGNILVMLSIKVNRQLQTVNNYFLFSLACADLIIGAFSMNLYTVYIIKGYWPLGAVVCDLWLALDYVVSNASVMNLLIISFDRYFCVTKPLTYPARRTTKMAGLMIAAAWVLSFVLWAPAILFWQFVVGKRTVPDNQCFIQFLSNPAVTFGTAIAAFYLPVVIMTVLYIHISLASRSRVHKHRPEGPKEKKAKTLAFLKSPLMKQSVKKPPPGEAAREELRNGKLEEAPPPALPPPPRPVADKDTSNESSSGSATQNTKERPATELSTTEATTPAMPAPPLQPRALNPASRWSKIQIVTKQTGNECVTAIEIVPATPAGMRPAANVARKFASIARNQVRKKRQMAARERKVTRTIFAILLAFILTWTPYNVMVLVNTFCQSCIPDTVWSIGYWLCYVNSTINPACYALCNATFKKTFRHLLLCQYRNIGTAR

Row | EC50 [nM] | SMILES
1 | 95.3 | Cc1cc(OCc2ccncc2)nc2sc(C(=O)NCc3cccc(F)c3F)c(N)c12
2 | 100 | COc1ccc(CNC(=O)c2sc3nc(OCc4ccncc4)cc(C)c3c2N)cc1
3 | 183 | Cc1cc(OCc2ccncc2)nc2sc(C(=O)NCc3cc(F)ccc3F)c(N)c12
4 | 192 | Cc1cc(OCCN2CCOCC2)nc2sc(C(=O)NC(C)(C)C)c(N)c12

From PubChem BioAssay AID449765 (Vanderbilt High Throughput Screening Facility, 2010)
